Patent publication US9138434B2, “Octahydrothienoquinoline derivative, pharmaceutical composition comprising derivative, and use of these” (KISSEI PHARMACEUTICAL CO., LTD., priority 2011, dated 2015)
pEC50: −log10 of the molar value. Like-named read-outs stand apart in the source and are kept apart here.

Columns and labels:
[1] = biological target: T1, human dopamine D2 receptor (Homo sapiens, UniProt P14416); assay: Stimulating activities on human dopamine D2 receptor, [35S]GTPγS binding to hD2R#7 cell membrane homogenates; format: biochemical
T1 construct: accorded to it of human dopamine D2 receptor (NM1-000795) registered on NCBI completely; expressed in transfected cells; membrane homogenates
Procedure: Identification Test of Stimulating Activities on Human Dopamine D2 Receptor
4) Preparation of Membrane Homogenates from hD2R#7 Cells
(2) Preparation of Membrane Homogenates from hD2R#7 Cells
The cells, which were grown to confluence in 150 mm dishes (IWAKI), were harvested with isotonic buffer (50 mM Tris (Sigma), 2 mM ethylenediamine-tetraacetic acid (Invitrogen), and 125 mM sodium chloride (Wako Pure Chemicals), pH 7.4) and centrifuged at 1880×g and 4° C. for 10 minutes, and the cell pellets were then suspended in isotonic buffer. After being subjected to one cycle of freezing and thawing, the cells were centrifuged at 1880×g and 4° C. for 10 minutes, and the cell pellets were suspended in isotonic buffer. The cells were centrifuged at 1880×g and 4° C. for 10 minutes, and the cell pellets were suspended in isotonic buffer and homogenate buffer (10 mM sodium bicarbonate (Nacalai) and 5 mM ethylenediamine-tetraacetic acid, pH 7.5). The volume ratio of isotonic-to-homogenate buffer was 2. The cells were sonicated and centrifuged at 1880×g and 4° C. for 10 minutes, and the supernatants were ultracentrifuged at 80000×g and 4° C. for 30 minutes. The final cell pellets were suspended in homogenate buffer containing protease inhibitor cocktail (Nacalai) and stored at −80° C. until use. The protein concentration was determined using BCA Protein Assay Kit (Pierce) in accordance with the manufacturer's instructions.
5) Determination of Stimulating Activities of Human Dopamine D2 Receptor
The stimulating activities of human dopamine D2 receptor was determined by measuring the binding potential of [^35S]-guanosine 5′-[gamma-thio]triphosphate ([^35S]GTPγS, PerkinElmer) according to the method described by Newman-Tancredi A. et al. (Naunyn-Schmiedeberg's Arch Pharmacol, 1999, vol. 359, pp. 447-453) with a minor modification. Test compounds and dopamine hydrochloride (Fluka) as positive control were dissolved in dimethyl sulfoxide (CARLBIOCHEM), resulting in 30 mM. The both compounds were diluted with assay buffer (50 mM Tris, 100 mM sodium chloride, 5 mM magnesium chloride (Nacalai), 1 mM ethylenediamine-tetraacetic acid, 1 mM dithiothreitol (Wako Pure Chemicals), 10 μM guanosine diphosphate (Wako Pure Chemicals) and 0.5% bovine serum albumin (Sigma), pH 7.4) to a final concentration of 100 pM (only test compounds), 1 nM, 10 nM, 100 nM, 1 μM, 10 μM and 100 μM (only dopamine hydrochloride). The above membrane homogenates and [^35S]GTPγS were diluted with assay buffer to a final concentration of 0.06 mg/mL and 0.6 nM, respectively. The serial diluted compounds (50 μL), the diluted membrane homogenates (50 μL) and the diluted [^35S]GTPγS (50 μL) were mixed on multi-screen 96-well plate (Millipore) and shaken lightly at room temperature for 60 minutes. The reaction was terminated by vacuum filtration with three times washes of ice-cold wash buffer (50 mM Tris, 100 mM sodium chloride, 5 mM magnesium chloride, and 1 mM ethylenediamine-tetraacetic acid, pH 7.4). After drying the bottoms of the plate at 60° C., MicroScinti-40 (PerkinElmer) (30 μL) was added in the plate. The tops of the plate were sealed by TopSeal-A (PerkinElmer), and the radioactivity was determined in a TopCount NXT (registered mark) (PerkinElmer) after shaking lightly for 5-10 minutes. The data was analyzed by nonlinear regression and sigmoidal dose-response curve fitting using GraphPad PRISM 4.0 (GraphPad Software), and values of EC50 (concentration of the compound producing half the maximal effect of the compound) were calculated. The data was presented as mean value (n=2).

[2] = biological target: T2, human serotonin 5-HT2B receptor (Homo sapiens, UniProt P41595); assay: Stimulating activities on human serotonin 5-HT2B receptor, intracellular calcium in forced expression HEK293 cells; format: cell-based
T2 construct: expressed in transfected cells; host or cells: HEK293, transient transfection (Lipofectamine 2000)
Procedure: Identification Test of Stimulating Activities on Human Serotonin 5-HT2B Receptor
The PCR was performed using forward primer depicted as sequence ID No. 4, reverse primer depicted as sequence ID No. 5 and KOD-Plus-Ver.2 (TOYOBO) as template of human brain hippocampus cDNA (Clontech). The PCR product was inserted into a plasmid (pcDNA3.1/V5-His-Topo (registered mark)). The PCR product-inserted plasmid was transformed in E. coli (One Shot TOP10 Chemically Competent). That E. coli was incubated in LB agar medium contained 50 μg/mL ampicillin for a day. A selected colony was incubated in LB medium contained 50 μg/mL ampicillin and PCR product-inserted plasmid was purified with QIAprep Spin Miniprep Kit (QIAGEN).
Mostly confluent HEK293 cells were washed with PBS, followed by exfoliation with 0.05% trypsin-EDTA and the cells were suspended in D-MEM liquid medium (phenol red-free, low glucose, pyruvic acid were contained) containing fetal bovine serum (final concentration: 10%) and GlutaMax (registered mark)I (final concentration: 2 mM). The suspension was scattered at 5×10^4 cells/100 L/well on poly-D-lysine-coated 96-well microplate (BD BioCoat (registered mark)). The scattered cells were cultured in 5% CO2 incubator at 37° C. Human serotonin 5-HT2B receptor expression plasmid was transfected in that cells according to the procedure seeing below.
Human serotonin 5-HT2B receptor expression plasmid and Lipofectamine (registered mark) 2000 (Invitrogen) were diluted to 0.008 g/L and 0.016 g/L each other with OPTI-MEM (registered mark)I Reduced-Serum Medium and incubated at room temperature. After incubation, the human serotonin 5-HT2B receptor exoression plasmid-diluted liquid and Lipofectamine (registered mark) 2000-diluted liquid were mixed at an equal volume and incubated at room temperature to form a complex. The complex was dispensed at 50 μL/well on the cells prepared above. The cells were incubated in 5% CO2 incubator at 37° C. for 2 days. After incubation, the cells were used as human serotonin 5-HT2B receptor forced expression cells for measurement of intracellular calcium concentration.
3) Determination of Stimulating Activities of Human Serotonin 5-HT2B Receptor
The stimulating activities of human serotonin 5-HT2B receptor was determined by measuring of intracellular calcium concentration. The 30 mM dimethyl sulfoxide (DMSO) solution contained test compounds or serotonin hydrochloride (Sigma) as positive control, was diluted with assay buffer ((HBSS), 20 mM HEPES, 1.3 mM calcium chloride, 0.5 mM magnesium chloride and 0.4 mM magnesium sulfate were contained, pH7.4) to appropriate concentration.
The forced expression cells were washed with assay buffer, and 100 μL/well of fluorescent calcium indicator (Fluo-4 NW Calcium Assay Kit) was added and incubated in 5% CO2 incubator at 37° C. After incubation, 50 μL/well of each test compound was added, and the concentration of intracellular calcium was measured as fluorescent signal with FlexStation (registered mark) II (Molecular Devices). The data was analyzed by nonlinear regression and sigmoidal dose-response curve fitting using GraphPad PRISM 4.0, and values of EC50 (concentration of the compound producing half the maximal effect of the compound) were calculated. The data was presented as mean value (n=2).

[3] = test system: unilateral 6-OHDA-lesioned hemi-Parkinsonian rats; assay: Contralateral rotational behavior in unilateral 6-hydroxydopamine-lesioned hemi-parkinsonian rats; format: in vivo, rat (male Sprague-Dawley); conditions: 10 mg/kg oral, fasted rats, observed up to 24 hours, mean
Procedure: 6-OHDA was dissolved at 2 mg/mL in a physiolosical saline solution containing 0.2% L-ascorbic acid. Desipramine was dissolved at 10 mg/mL in a physiolosical saline solution in a hot-water bath. Apomorphine was dissolved at 0.1 mg/mL in a physiolosical saline solution. […] Test compounds were dissolved in a solution containing 2% DMA, 100 or 200 mol % hydrochloric acid, and 98% of a 0.5% methyl cellulose solution. […] (Eur J Pharmacol, 2000, vol. 408, P. 249-255) with a minor modification. Male Sprague-Dawley rats (6-weeks-old, Charles River Laboratories Japan Inc.) were anaesthetized with intraperitoneal somnopentyl (45 mg/kg) injection and placed in a stereotaxic frame (Narishige). In order to prevent 6-OHDA-induced damage of noradrenergic neurons, desipramine (25 mg/kg) was intraperitoneally injected 30 minutes before the 6-OHDA injection. After the bregma identification via a middle calvarial incision, the skull was drilled using a dental drill at the site of 6-OHDA injection. The lesion was made by injecting 6-OHDA (8 μg in 4 μL at a speed of 1 μL/minute) unilaterally into the left medial forebrain bundle by using a injection cannula (30 gauge needle) connected to a microsyringe (Hamilton) (the lesion coordinates; A/P −2.5 mm, L/M −1.8 mm, and V/D −8.0 mm, from the bregma point and surface of the skull). The cannula was carefully removed from the animal after keeping placed on the lesion site for 5 minutes. The skull was filled its hole with dental cement, disinfected, and the scalp incision was surgically sutured. Animals recovered from anesthesia were housed as usual until the day of the experiment. 3) Determining of Contralateral Rotational Behavior Three weeks after the lesion, rats were tested on the basis of their contralateral rotational behavior (single rotation was defined as a 360° turn) in response to 0.1 mg/kg apomorphine given subcutaneously. For behavioral observation, rats were placed in plastic cylinders of a diameter of 30 cm, and its contralateral rotational behaviors were videotaped and quantified by rat-rotation auto counting system R-RACS (Kissei Wellcom). On the experimental day, animals were fasted overnight, and test compounds were orally administrated at doses of 10 mg/kg. […] Total number of rotations and the duration of the response in experimental period were presented as mean value.

[4] = [35S]GTPγS binding, membrane homogenates of HEK293 cells stably expressing human D2 receptor, mean, n=2, read-out: EC50
[5] = intracellular calcium (Fluo-4), HEK293 cells transiently expressing human 5-HT2B receptor, mean, n=2, read-out: EC50

T2 sequence (P41595 whole entry): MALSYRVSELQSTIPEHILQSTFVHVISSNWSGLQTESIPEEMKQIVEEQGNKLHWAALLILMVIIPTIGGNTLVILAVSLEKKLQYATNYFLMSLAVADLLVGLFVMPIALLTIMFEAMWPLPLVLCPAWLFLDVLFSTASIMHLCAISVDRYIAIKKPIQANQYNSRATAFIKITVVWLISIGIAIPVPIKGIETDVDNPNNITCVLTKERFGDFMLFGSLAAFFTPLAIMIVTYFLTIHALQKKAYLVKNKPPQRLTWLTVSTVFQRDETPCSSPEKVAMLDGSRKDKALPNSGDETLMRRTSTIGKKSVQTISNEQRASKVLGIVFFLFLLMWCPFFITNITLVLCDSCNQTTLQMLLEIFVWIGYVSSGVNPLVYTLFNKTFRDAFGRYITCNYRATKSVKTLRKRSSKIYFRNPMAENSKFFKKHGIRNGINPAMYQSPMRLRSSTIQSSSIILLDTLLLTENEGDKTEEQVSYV
T1 sequence (P14416 whole entry): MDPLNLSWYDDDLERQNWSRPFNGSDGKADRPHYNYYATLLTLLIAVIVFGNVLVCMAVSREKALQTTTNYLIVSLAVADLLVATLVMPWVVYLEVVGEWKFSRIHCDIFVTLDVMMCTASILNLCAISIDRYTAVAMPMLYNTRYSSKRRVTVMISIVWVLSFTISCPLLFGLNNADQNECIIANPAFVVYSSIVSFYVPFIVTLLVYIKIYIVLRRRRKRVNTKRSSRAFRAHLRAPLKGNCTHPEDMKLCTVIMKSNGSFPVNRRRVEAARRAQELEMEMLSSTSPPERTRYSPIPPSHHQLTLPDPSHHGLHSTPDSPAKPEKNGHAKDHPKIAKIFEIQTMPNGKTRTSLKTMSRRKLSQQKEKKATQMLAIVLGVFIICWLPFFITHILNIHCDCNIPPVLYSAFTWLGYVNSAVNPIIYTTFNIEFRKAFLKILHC

Structure (SMILES) | pEC50 [1] | pEC50 [2] | pEC50 [1, 4] | pEC50 [2, 5] | Total number or rotations ([3]; contralateral rotations) | Duration ([3]; duration of contralateral rotation response) [min]
CCN(CC)CCNC(=O)N(CC)C(=O)[C@@H]1C[C@@H]2Cc3c(sc(N)c3C#N)C[C@H]2N(C)C1 [1-105, 1-{[(4aR,6R,8aR)-2-amino-3-cyano-8-methyl-4H,4aH,5H,6H,7H,8H,8aH,9H-thieno[3,2-g]quinolin-6-yl]carbonyl}-3-[2-(diethylamino)ethyl]-1-ethylurea] | 8.30 | < 5.00 |  |  |  | 
CCN(C(=O)NC(C)(C)CN(C)C)C(=O)[C@@H]1C[C@@H]2Cc3c(sc(N)c3C#N)C[C@H]2N(C)C1 [1-106, 1-{[(4aR,6R,8aR)-2-amino-3-cyano-8-methyl-4H,4aH,5H,6H,7H,8H,8aH,9H-thieno[3,2-g]quinolin-6-yl]carbonyl}-3-[1-(dimethylamino)-2-methylpropan-2-yl]-1-ethylurea] |  |  | 8.40 | < 5.00 |  | 
CCN(C(=O)NCC(CC)(CC)N(C)C)C(=O)[C@@H]1C[C@@H]2Cc3c(sc(N)c3C#N)C[C@H]2N(C)C1 [1-107, 1-{[(4aR,6R,8aR)-2-amino-3-cyano-8-methyl-4H,4aH,5H,6H,7H,8H,8aH,9H-thieno[3,2-g]quinolin-6-yl]carbonyl}-3-[2-(dimethylamino)-2-ethylbutyl]-1-ethylurea] |  |  |  | < 5.00 | 4033.3 | 1068.3
CN(C)CCNC(=O)N(CC1CC1)C(=O)[C@@H]1C[C@@H]2Cc3c(sc(N)c3C#N)C[C@H]2N(C)C1 [1-109, 1-{[(4aR,6R,8aR)-2-amino-3-cyano-8-methyl-4H,4aH,5H,6H,7H,8H,8aH,9H-thieno[3,2-g]quinolin-6-yl]carbonyl}-1-(cyclopropylmethyl)-3-[2-(dimethylamino)ethyl]urea] |  |  | 8.52 | < 5.00 |  | 
